From patent publication US11401271B2, “Fused heterocyclic compound, pyrazole-ring-containing fused heterocyclic compound, agricultural composition containing thereof, and method of using the composition” (SOUTH CHINA AGRICULTURAL UNIVERSITY, priority 2017, dated 2022)
Read-outs that look alike come from different tables or passages of the source.

How the values were obtained:
Test in all cases: whole plant or invertebrate
Format in all cases: in vivo
Plutella xylostella = details: for mortality at 500 ppm: Plutella xylostella, read-out: Plutella xylostella Mortality (%) 500 ppm
Summary of the method: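 Cabbage leaf discs dipped 5 s in compound at 500 ppm (0.05% Tween-80 aqueous), air-dried, fed to about 35 2nd-instar larvae at 28° C., triplicate. Dead larvae counted after 24 h; mortality (%) corrected against Tween-80 control.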

Solenopsis invicta = details: for mortality at 100 ppm: Solenopsis invicta
Summary of the method: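 Fire ants fed compound by water test-tube poison-feeding at 100 ppm in aqueous 0.05% Tween-80/5% honey (from 10 g/L DMSO stock), kept at 25 °C. Live and dead ants counted at 24 and 72 h; mortality (%) calculated relative to live ants in the untreated control.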

Aphis craccivora = details: for Aphis craccivora Mortality (%): immersion 5 seconds, counted after 24 hours; for mortality at 500 ppm: Aphis craccivora, 24 h, read-out: Aphis craccivora Mortality (%) 500 ppm
Summary of the method: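 Wingless adults feeding on bean sprouts were dipped with the sprouts for 5 s in 500 ppm compound in aqueous 0.05% Tween-80, air-dried, then held at 23° C. Dead aphids counted after 24 h, triplicate, with 0.05% Tween-80 as control. Mortality (%) = (control live − treated live)/control live × 100.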

Spodoptera exigua = details: for mortality at 500 ppm: Spodoptera exigua, 24 h, read-out: Spodoptera exigua Mortality (%) 500 ppm
Summary of the method: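 Cabbage leaf discs dipped 5 s in 500 ppm compound (0.05% Tween-80 aqueous), air-dried, fed to about 35 2nd-instar larvae at 28° C, three replicates. Deaths counted at 24 h; mortality corrected against Tween-80 control.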

[1] = 500 ppm, 2nd-instar larvae, leaf immersion feeding
[2] = 100 ppm, 24 h, water test tube poison-feeding
[3] = 100 ppm, 72 h, water test tube poison-feeding
[4] = 500 ppm, wingless adults, impregnation method, 24 hours
[5] = 500 ppm, 2nd-instar larvae, leaf immersion feeding, 24 hours
[6] = 24 h, read-out: Solenopsis invicta Mortality (%) 100 ppm 24 h, 100 ppm, 24 h, water test tube poison-feeding
[7] = 72 h, read-out: Solenopsis invicta Mortality (%) 100 ppm 72 h, 100 ppm, 72 h, water test tube poison-feeding

Row | Structure (SMILES) | Plutella xylostella Mortality (%) (Plutella xylostella; [1]) | Solenopsis invicta Mortality (%) 24 h (Solenopsis invicta; [2]) [%] | Solenopsis invicta Mortality (%) 72 h (Solenopsis invicta; [3]) [%] | Aphis craccivora Mortality (%) (Aphis craccivora; 500 ppm, wingless adults) | Spodoptera exigua Mortality (%) (Spodoptera exigua; [1]) | mortality at 500 ppm (Plutella xylostella) [%] | mortality at 100 ppm (Solenopsis invicta; [6]) [%] | mortality at 100 ppm (Solenopsis invicta; [7]) [%] | mortality at 500 ppm (Aphis craccivora) [%] | mortality at 500 ppm (Spodoptera exigua) [%] | further results
1 | N#Cc1nn2c(c1[S+]([O-])C(F)(F)F)NC(C#N)(C#N)c1cc(C(F)(F)F)cnc1-2 (stereo not drawn) [a-52] |  |  |  |  |  |  |  |  |  |  | Plutella xylostella Mortality (%) 500 ppm (Plutella xylostella; [1]): 100%; Solenopsis invicta Mortality (%) 100 ppm 24 h (Solenopsis invicta; [2]): 20%; Solenopsis invicta Mortality (%) 100 ppm 72 h (Solenopsis invicta; [3]): 89%; Aphis craccivora Mortality (%) 500 ppm (Aphis craccivora; [4]): 91%; Spodoptera exigua Mortality (%) 500 ppm (Spodoptera exigua; [5]): 89%
2 | N#CCC1Nc2c(OC(F)(F)F)c(C#N)nn2-c2c(Cl)cc(C(F)(F)F)cc21 (stereo not drawn) [d-129] | 95 | 24 | 100 | 100 | 100 |  |  |  |  |  | 
3 | C=CC1(C(F)(F)F)Nc2c(-c3ccccc3C(F)(F)F)c(C#N)nn2-c2c(Cl)cc(C(F)(F)F)cc21 (stereo not drawn) [Compound C11] |  |  |  |  |  | 100 | 46 | 100 | 100 | 100 | 
4 | CCSc1c(C#N)nn2c1NC(C)(C)c1ccccc1-2 [Compound A9] |  |  |  |  |  | 100 | 24 | 100 | 100 | 100 | 
5 | COC(=O)CC1(C(F)(F)F)Nc2c([S+]([O-])C(F)(F)F)c(C#N)nn2-c2ncc(C(F)(F)F)cc21 (stereo not drawn) [a-62] |  |  |  |  |  |  |  |  |  |  | Plutella xylostella Mortality (%) 500 ppm (Plutella xylostella; [1]): 100%; Solenopsis invicta Mortality (%) 100 ppm 24 h (Solenopsis invicta; [2]): 21%; Solenopsis invicta Mortality (%) 100 ppm 72 h (Solenopsis invicta; [3]): 99%; Aphis craccivora Mortality (%) 500 ppm (Aphis craccivora; [4]): 100%; Spodoptera exigua Mortality (%) 500 ppm (Spodoptera exigua; [5]): 100%
6 | C=CC1Nc2c([S+]([O-])C(F)(F)F)c(C#N)nn2-c2c(Cl)cc(C(F)(F)F)cc21 (stereo not drawn) [Compound C16] |  |  |  |  |  | 100 | 23 | 89 | 99 | 95 | 
7 | CC(=O)c1nn2c(c1[S+](C)[O-])NC(CC(N)=O)(C(N)=O)c1cc(C(F)(F)F)cc(Cl)c1-2 (stereo not drawn) [Compound C49] |  |  |  |  |  | 87 | 20 | 81 | 90 | 89 | 
8 | COC(=O)C1(CC(=O)OCC(F)(F)F)Nc2c([S+]([O-])C(F)(F)F)c(C#N)nn2-c2c(Cl)cc(C(F)(F)F)cc21 (stereo not drawn) [d-27] | 100 | 14 | 100 | 100 | 100 |  |  |  |  |  | 
9 | COC(=O)C1(CC#N)Nc2c([S+]([O-])C(F)(F)F)c(C#N)nn2-c2cncc(Cl)c21 (stereo not drawn) [b-2] | 100 | 19 | 93 | 100 | 95 |  |  |  |  |  | 
10 | CC(=O)c1nn2c(c1[S+](C)[O-])NC(CC(=O)O)(C(=O)O)c1cc(C(F)(F)F)cc(Cl)c1-2 (stereo not drawn) [Compound C47] |  |  |  |  |  | 77 | 27 | 87 | 80 | 86 | 
11 | C=CCN1c2c(C#N)c(SC)nn2-c2ccccc2C1(F)C(F)(F)F (stereo not drawn) [Compound A34] |  |  |  |  |  | 96 | 28 | 97 | 100 | 100 | 
12 | COC(=O)CC1(C(=O)OC)c2cc(C(F)(F)F)cc(Cl)c2-n2nc(C#N)c([S+]([O-])C(F)(F)F)c2N1C (stereo not drawn) [Compound C39] |  |  |  |  |  | 90 | 24 | 87 | 98 | 100 | 
13 | C=CC1(CC#N)Nc2c([S+](C)[O-])c(C#N)nn2-c2c(Cl)cc(C(F)(F)F)cc21 (stereo not drawn) [Compound C22] |  |  |  |  |  | 99 | 20 | 70 | 89 | 94 | 
14 | COC(=O)CC1(C(=O)OC)Nc2c([S+]([O-])C(F)(F)F)c(C#N)nn2-c2cc(C(F)(F)F)cc(Cl)c21 (racemic) [c-8] | 100 | 20 | 100 | 100 | 100 |  |  |  |  |  | 
15 | COC(=O)CC1(C#N)Nc2c([S+]([O-])C(F)(F)F)c(C#N)nn2-c2c(Cl)cc(C(F)(F)F)cc21 (stereo not drawn) [d-67] | 100 | 41 | 99 | 100 | 90 |  |  |  |  |  | 
16 | CCOC(=O)C1(CC(=O)OC(C(F)(F)F)C(F)(F)F)Nc2c([S+]([O-])C(F)(F)F)c(C#N)nn2-c2c(Cl)cc(C(F)(F)F)cc21 (stereo not drawn) [d-42] | 100 | 31 | 100 | 100 | 100 |  |  |  |  |  | 
17 | N#Cc1nn2c(c1[S+]([O-])C(F)(F)F)NC(Cc1ccccc1)(C(=O)C(F)(F)F)c1c(Cl)cncc1-2 (stereo not drawn) [b-27] | 91 | 19 | 100 | 100 | 89 |  |  |  |  |  | 
18 | COC(=O)CC1(C(=O)OC)Nc2c(C(F)(F)F)c(C#N)nn2-c2cc(C(F)(F)F)cc(Cl)c21 (stereo not drawn) [c-2] | 95 | 20 | 97 | 100 | 90 |  |  |  |  |  | 
19 | N#Cc1nn2c(c1[S+]([O-])C(F)(F)F)NC(CCl)(C(O)CO)c1cc(C(F)(F)F)cc(Cl)c1-2 (stereo not drawn) [Compound C55] |  |  |  |  |  | 88 | 19 | 83 | 91 | 80 | 
20 | CN1c2c(Br)c(C#N)nn2-c2ccccc2C1(C)C [Compound A3] |  |  |  |  |  | 90 | 25 | 100 | 100 | 100 | 
21 | C=CCN(CC)c1cc2n(n1)-c1cnccc1C(F)(CC(F)(F)F)N2 (stereo not drawn) [Compound A38] |  |  |  |  |  | 100 | 26 | 93 | 100 | 90 | 
22 | N#Cc1cnn2c1NC(N)(CN)c1ccc(Cl)cc1-2 (stereo not drawn) [Compound A24] |  |  |  |  |  |  |  |  |  |  | Plutella xylostella Mortality (%) 500 ppm (Plutella xylostella; in vivo): 100%; Solenopsis invicta Mortality (%) 100 ppm 24 h (Solenopsis invicta; in vivo): 44%; Solenopsis invicta Mortality (%) 100 ppm 72 h (Solenopsis invicta; in vivo): 100%; Aphis craccivora Mortality (%) 500 ppm (Aphis craccivora; in vivo): 100%; Spodoptera exigua Mortality (%) 500 ppm (Spodoptera exigua; in vivo): 100%
23 | COC(=O)CC1(C(=O)OC)Nc2c(C#N)c(C(F)(F)F)nn2-c2cncc(Cl)c21 (stereo not drawn) [b-136] | 100 | 20 | 97 | 100 | 100 |  |  |  |  |  | 
24 | COC(=O)/C=C/C1(CC#N)Nc2c([S+](C)[O-])c(C(C)=O)nn2-c2c(Cl)cc(C(F)(F)F)cc21 (stereo not drawn) [Compound C60] |  |  |  |  |  | 90 | 25 | 92 | 100 | 92 | 
25 | [O-][S+](c1c(C(F)(F)F)nn2c1NC(Br)c1c(Cl)cncc1-2)C(F)(F)F (stereo not drawn) [b-104] | 96 | 20 | 96 | 100 | 96 |  |  |  |  |  | 
26 | COC(=O)C1(CC(=O)OCC(F)(F)F)Nc2c([S+]([O-])C(F)(F)F)c(C#N)nn2-c2c(C(F)(F)F)ccc(Cl)c21 (stereo not drawn) [e-3] | 100 | 20 | 98 | 100 | 95 |  |  |  |  |  | 
27 | CCc1nn2c(c1Br)NC(/C=C\C(=O)OC)(/C=C/C(=O)OC)c1cc(C(F)(F)F)cc(Cl)c1-2 (stereo not drawn) [Compound C63] |  |  |  |  |  | 98 | 29 | 98 | 96 | 90 | 
28 | CC[S+]([O-])c1c(C#N)nn2c1NC(/C=C/C(=O)OC)(CC#N)c1cc(C(F)(F)F)cc(Cl)c1-2 (stereo not drawn) [Compound C59] |  |  |  |  |  | 100 | 29 | 100 | 100 | 90 | 
29 | CC(=O)C1(C(=O)C(F)(F)F)Nc2c([S+]([O-])C(F)(F)F)c(C#N)nn2-c2cc(C(F)(F)F)cc(Cl)c21 (stereo not drawn) [c-39] | 95 | 24 | 90 | 100 | 89 |  |  |  |  |  | 
30 | CCOC(=O)CC1(C(=O)OC)Nc2c([S+]([O-])C(F)(F)F)c(C#N)nn2-c2c(C(F)(F)F)ccc(Cl)c21 (stereo not drawn) [e-2] | 100 | 25 | 100 | 100 | 100 |  |  |  |  |  | 
